What was measured:
Assay type in all cases: in vivo
[1] = tested on: Alternaria solani; test: Test F: tomato early blight, preventive spray on tomato seedlings; details: 50 ppm, 100 = 100% disease control, 0 = no control
From the text: (§1) General protocol for preparing test suspensions for Tests A-F: the test compounds were first dissolved in acetone in an amount equal to 3% of the final volume and then suspended at the desired concentration (in ppm) in acetone and purified water (50/50 mix by volume) containing 250 ppm of the surfactant PEG400 (polyhydric alcohol esters). The resulting test suspensions were then used in Tests A-F. The test suspension was sprayed to the point of run-off on tomato seedlings. The following day the seedlings were inoculated with a spore suspension of Alternaria solani (the causal agent of tomato early blight) and incubated in a saturated atmosphere at 27° C. for 48 h, and then moved to a growth chamber at 20° C. for 3 days, after which time visual disease ratings were made. A rating of 100 indicates 100% disease control and a rating of 0 indicates no disease control (relative to the controls). A dash (-) indicates the compound was not tested.

[2] = tested on: Botrytis cinerea; test: Test E: tomato Botrytis, preventive spray on tomato seedlings; details: 50 ppm, 100 = 100% disease control, 0 = no control
From the text: as §1, with “Botrytis cinerea” for “Alternaria solani”, “Botrytis)” for “early blight)”, “20°” for “27°”, “24°” for “20°”

[3] = tested on: Phakopsora pachyrhizi; test: Test D: Asian soybean rust, preventive spray on soybean seedlings; details: 50 ppm, 100 = 100% disease control, 0 = no control
From the text: General protocol for preparing test suspensions for Tests A-F: the test compounds were first dissolved in acetone in an amount equal to 3% of the final volume and then suspended at the desired concentration (in ppm) in acetone and purified water (50/50 mix by volume) containing 250 ppm of the surfactant PEG400 (polyhydric alcohol esters). The resulting test suspensions were then used in Tests A-F.
The test solution was sprayed to the point of run-off on soybean seedlings. The following day the seedlings were inoculated with a spore suspension of Phakopsora pachyrhizi (the causal agent of Asian soybean rust) and incubated in a saturated atmosphere at 22° C. for 24 h and then moved to a growth chamber at 22° C. for 8 days, after which time visual disease ratings were made.
A rating of 100 indicates 100% disease control and a rating of 0 indicates no disease control (relative to the controls). A dash (-) indicates the compound was not tested.

[4] = tested on: Septoria tritici; test: Test A: wheat leaf blotch, preventive spray on wheat seedlings; details: 50 ppm, 100 = 100% disease control, 0 = no control relative to controls
From the text: (§2) General protocol for preparing test suspensions for Tests A-F: the test compounds were first dissolved in acetone in an amount equal to 3% of the final volume and then suspended at the desired concentration (in ppm) in acetone and purified water (50/50 mix by volume) containing 250 ppm of the surfactant PEG400 (polyhydric alcohol esters). The resulting test suspensions were then used in Tests A-F. The test solution was sprayed to the point of run-off on wheat seedlings. The following day the seedlings were inoculated with a spore suspension of Septoria tritici (the causal agent of wheat leaf blotch) and incubated in a saturated atmosphere at 24° C. for 48 h, and then moved to a growth chamber at 20° C. for 17 days, after which time disease ratings were made. A rating of 100 indicates 100% disease control and a rating of 0 indicates no disease control (relative to the controls). A dash (-) indicates the compound was not tested.

[5] = tested on: Blumeria graminis f. sp. tritici; test: Test C: wheat powdery mildew, preventive spray on wheat seedlings; details: 50 ppm, rated after 8 days, 100 = 100% disease control, 0 = no control
From the text: as §1, with “on wheat” for “on tomato”, “spore dust” for “spore suspension”, “of Blumeria graminis f. sp. tritici, (also known as Erysiphe graminis f. sp. tritici, the” for “of Alternaria solani (the”, “of wheat powdery mildew)” for “of tomato early blight)”, “in” for “in a saturated atmosphere at 27° C. for 48 h, and then moved to”, “for 8” for “for 3”

[6] = tested on: Puccinia recondita f. sp. tritici; test: Test B: wheat leaf rust, preventive spray on wheat seedlings; details: 50 ppm, 100 = 100% disease control, 0 = no control relative to controls
From the text: as §2, with “Puccinia recondita f. sp.” for “Septoria”, “rust)” for “blotch)”, “20°” for “24°”, “24” for “48”, “7” for “17”

| SMILES | Test F disease control rating (tomato early blight) [1] | Test E disease control rating (tomato Botrytis) [2] | Test D disease control rating (Asian soybean rust) [3] | Test A disease control rating (wheat leaf blotch) [4] | Test C disease control rating (wheat powdery mildew) [5] | Test B disease control rating (wheat leaf rust) [6] | pest or weed control at 50 ppm ([1]; Alternaria solani, read-out: Test F disease control rating (tomato early blight)) | pest or weed control at 50 ppm ([2]; Botrytis cinerea, read-out: Test E disease control rating (tomato Botrytis)) | pest or weed control at 50 ppm ([3]; Phakopsora pachyrhizi, read-out: Test D disease control rating (Asian soybean rust)) | pest or weed control at 50 ppm ([4]; Zymoseptoria tritici, read-out: Test A disease control rating (wheat leaf blotch)) | pest or weed control at 50 ppm ([5]; Blumeria graminis, 192 h, read-out: Test C disease control rating (wheat powdery mildew)) | pest or weed control at 50 ppm ([6]; read-out: Test B disease control rating (wheat leaf rust)) |
| --- | --- | --- | --- | --- | --- | --- | --- | --- | --- | --- | --- | --- |
| Cc1nn(C)c(Nc2ccc(Cl)cc2[N+](=O)[O-])c1-c1c(F)cccc1Cl [Compound 22] | 64% | 99% | 0% | 100% | 97% | 93% |  |  |  |  |  |  |
| COc1cc(F)c(Nc2c(-c3c(F)cccc3Cl)c(C)nn2C)c([N+](=O)[O-])c1 [Compound 23, 4-(2-chloro-6-fluorophenyl)-N-(2-fluoro-4-methoxy-6-nitrophenyl)-1,3-dimethyl-1H-pyrazol-5-amine] |  |  |  |  |  |  | 99% | 97% | 99% | 100% | 100% | 100% |
| Cc1cc(Cl)c(Nc2c(-c3c(F)cccc3Cl)c(C)nn2C)c([N+](=O)[O-])c1 [Compound 24] | 0% | 97% | 0% | 100% | 0% | 89% |  |  |  |  |  |  |
| Cc1nn(C)c(Nc2c(F)cccc2[N+](=O)[O-])c1-c1c(F)cccc1Cl [Compound 25] | 98% | 100% | 98% | 100% | 99% | 100% |  |  |  |  |  |  |
| Cc1ccc(Nc2c(-c3ccc(F)cc3Cl)c(C)nn2C)c([N+](=O)[O-])c1 [Compound 26] | 68% | 100% | 77% | 100% | 94% | 99% |  |  |  |  |  |  |
| COc1ccc(-c2c(C)nn(C)c2Nc2c(F)cccc2[N+](=O)[O-])c(Cl)c1 [Compound 27] | 99% | 100% | 87% | 100% | 91% | 100% |  |  |  |  |  |  |
| Cc1nn(C)c(Nc2ccc(OC(F)F)cc2[N+](=O)[O-])c1-c1ccc(F)cc1Cl [Compound 28] | 0% | 99% | 0% | 91% | 69% | 68% |  |  |  |  |  |  |
| Cc1nn(C)c(Nc2ccc(OCC#N)cc2[N+](=O)[O-])c1-c1ccc(F)cc1Cl [Compound 29] | 26% | 99% | 81% | 97% | 87% | 98% |  |  |  |  |  |  |
| Cc1cc(Cl)c(Nc2c(-c3ccc(F)cc3Cl)c(C)nn2C)c([N+](=O)[O-])c1 [Compound 31] | 76% | 99% | 98% | 100% | 100% | 100% |  |  |  |  |  |  |
| Cc1nn(C)c(Nc2cc(F)c(F)cc2[N+](=O)[O-])c1-c1ccc(F)cc1Cl [Compound 32] | 0% | 99% | 98% | 93% | 56% | 85% |  |  |  |  |  |  |
| Cc1cc(Cl)cc([N+](=O)[O-])c1Nc1c(-c2ccc(F)cc2Cl)c(C)nn1C [Compound 33] | 85% | 99% | 92% | 100% | 99% | 100% |  |  |  |  |  |  |
| Cc1nn(C)c(Nc2cccc(Cl)c2[N+](=O)[O-])c1-c1ccc(F)cc1Cl [Compound 34] | 0% | 71% | 0% | 100% | 13% | 54% |  |  |  |  |  |  |

Reference: patent US12398107B2, “Fungicidal nitroanilino substituted pyrazoles” (FMC Corporation, priority 2018, dated 2025)
